# Values of other authors in patent US10500227B2, “Bioactive gas-encapsulated echogenic liposomes and methods for treating cardiovascular disease” (University of Cincinnati, priority 2014, dated 2019).
structure (smiles),measurement,setting,value
"[N]=O [NO, nitric oxide]",diffusivity,in muscular tissue,"roughly 3,300 μm^2 per second"
same,half-life,in the presence of hemoglobin and oxygen in vivo,< 1 s
